Results on one compound are retold here after patent publication US9169217B2, “Arylalkyl esters of 4-amino-6-(substituted phenyl)-picolinates and 6-amino-2-(substituted phenyl)-pyrimidinecarboxylates and their use as selective herbicides for crops” (Dow AgroSciences LLC, priority 2011, dated 2015).

SMILES strings stand for the structures.

Holding throughout (format): in vivo
One experiment deals with Oryza sativa (Rice). As to the kind of experiment: General postemergence herbicidal activity (Example 13). The following applies: post-emergent spray, 70 g ai/ha, 14 DAA; crop (rice). Here is the method: (§1) Seeds or nutlets of the desired test plant species were planted in Sun Gro Metro-Mix® 360 planting mixture, which typically has a pH of 6.0 to 6.8 and an organic matter content of about 30 percent, in plastic pots with a surface area of 84.6 square centimeters (cm^2). When required to ensure good germination and healthy plants, a fungicide treatment and/or other chemical or physical treatment was applied. The plants were grown for 7-31 days (d) in a greenhouse with an approximate 15 hour (h) photoperiod which was maintained at about 23-29° C. during the day and 22-28° C. during the night. Nutrients and water were added on a regular basis and supplemental lighting was provided with overhead metal halide 1000-Watt lamps as necessary. The plants were employed for testing when they reached the first or second true leaf stage.
(§2) Treatments consisted of esters of compounds 33 and 39 and F and G. Compound F is methyl 6-amino-2-(4-chloro-2-fluoro-3-methoxyphenyl)-5-methoxypyrimidine-4-carboxylate; and compound G is methyl 4-amino-3-chloro-6-(4-chloro-2-fluoro-3-methoxyphenyl)picolinate. A weighed amount, determined by the highest rate to be tested, of each test compound was placed in a 25 mL glass vial and was dissolved in 4 mL of a 97:3 v/v (volume/volume) mixture of acetone and dimethyl sulfoxide (DMSO) to obtain concentrated stock solutions. […] The concentrated stock solutions obtained were diluted with 20 mL of an aqueous mixture containing acetone, water, isopropyl alcohol, DMSO, Atplus 411F crop oil concentrate, and Triton® X-155 surfactant in a 48.5:39:10:1.5:1.0:0.02 v/v ratio to obtain spray solutions containing the highest application rates. Additional application rates were obtained by serial dilution of 12 mL of the high rate solution into a solution containing 2 mL of a 97:3 v/v (volume/volume) mixture of acetone and DMSO and 10 mL of an aqueous mixture containing acetone, water, isopropyl alcohol, DMSO, Atplus 411F crop oil concentrate, and Triton® X-155 surfactant in a 48.5:39:10:1.5:1.0:0.02 v/v ratio to obtain ½×, ¼×, ⅛× and 1/16× rates of the high rate. Compound requirements are based upon a 12 mL application volume at a rate of 187 liters per hectare (L/ha). Formulated compounds were applied to the plant material with an overhead Mandel track sprayer equipped with 8002E nozzles calibrated to deliver 187 L/ha over an application area of 0.503 square meters (m^2) at a spray height of 18 inches (43 cm) above the average plant canopy height. Control plants were sprayed in the same manner with the solvent blank.
(§3) The treated plants and control plants were placed in a greenhouse as described above and watered by sub-irrigation to prevent wash-off of the test compounds. After 14 d, the condition of the test plants as compared with that of the untreated plants was determined visually and scored on a scale of 0 to 100 percent where 0 corresponds to no injury and 100 corresponds to complete kill.

Experiment [1] concerns Stellaria media (Chickweed, common). The description is as above. The following applies: post-emergent spray, 70 g ai/ha, 14 DAA. Here is the method: as §1, §2, §3
Experiment [2] has as its system Triticum aestivum (Wheat, spring). The description is as above. The settings on record: post-emergent spray, 70 g ai/ha, 14 DAA; crop (spring wheat). Here is the method: as §1, §2, §3
The test system of experiment [3] is Viola tricolor (Pansy, wild). The experiment is described as above. The settings on record: post-emergent spray, 70 g ai/ha, 14 DAA. Here is the method: as §1, §2, §3
The subject of another experiment is Avena fatua (Oat, wild). As to the kind of experiment: Postemergence herbicidal activity in cereal crops (Example 14). The settings on record: wheat cropping systems, postemergence spray, 35 g ae/ha, 21 DAA.
Experiment [4] deals with Lolium multiflorum (Ryegrass, Italian). The experiment is described as above. The settings on record: wheat cropping systems, postemergence spray, 17.5 g ae/ha, 21 DAA.
In experiment [5] the test system is Setaria viridis (Foxtail, green). The experiment is described as above. The following applies: wheat cropping systems, postemergence spray, 17.5 g ae/ha, 21 DAA.

As for `COC(=O)c1nc(-c2ccc(Cl)c(OC)c2F)nc(N)c1OC` [Compound F, methyl 6-amino-2-(4-chloro-2-fluoro-3-methoxyphenyl)-5-methoxypyrimidine-4-carboxylate, reference compound], the “Visual Injury (%) ORYSA” value in the experiment with Oryza sativa (Rice) is given as 75%. In experiment [1], the “Visual Injury (%) STEME” value stood at 90%. In experiment [2], the “Visual Injury (%) TRZAS” value was 70%. Further, the “Visual Injury (%) VIOTR” value in experiment [3] was found to be 80%. The “Visual Injury (%) AVEFA” value in the experiment with Avena fatua (Oat, wild) is on record as 20%. Further, the “Visual Injury (%) LOLMU” value in experiment [4] is recorded as 60%. In experiment [5], the “Visual Injury (%) SETVI” value is 85%.
